Earlier results in patent US20160082021A1, “PHARMACEUTICAL COMPOSITION OF DOXYCYCLINE WITH REDUCED FOOD EFFECT” (SUN PHARMACEUTICAL INDUSTRIES LIMITED, priority 2014, published 2016).

Settings: oral versus intravenous doses

absorption for oral administration: 73-77%
Structure (SMILES): C[C@H]1c2cccc(O)c2C(=O)C2=C(O)[C@]3(O)C(=O)C(C(N)=O)=C(O)[C@@H](N(C)C)[C@@H]3[C@@H](O)[C@@H]21 [doxycycline]
